Measured values reported in ChEMBL document CHEMBL4270557, “Discovery of potent anti-convulsant carbonic anhydrase inhibitors: Design, synthesis, in vitro and in vivo appraisal” (Eur J Med Chem, 2018).

Experiments:
[1] = biological target: Carbonic anhydrase 1 (Homo sapiens, UniProt P00915); test: Inhibition of human recombinant carbonic anhydrase 1 assessed as CO2 hydration preincubated for 15 mins prior to testing measured for 10 to 100 secs by phenol red dye-based stopped-flow assay
[2] = tested on: Rattus norvegicus; test: Anticonvulsant activity in Wistar rat assessed as protection against maximal electroshock-induced seizures at 30 mg/kg, po administered 0.5 hrs prior to 150 mA current induction relative to control; assay type: functional
[3] = tested on: Mus musculus; test: Anticonvulsant activity in Swiss albino mouse assessed as protection against subcutaneous PTZ-induced seizures at 100 mg/kg, ip administered 0.5 hrs prior to PTZ-induction relative to control; assay type: functional
[4] = tested on: Rattus norvegicus; test: Anticonvulsant activity in Wistar rat assessed as protection against maximal electroshock-induced seizures at 30 mg/kg, po administered 0.25 hrs prior to 150 mA current induction relative to control; assay type: functional
[5] = tested on: Mus musculus; test: Anticonvulsant activity in Swiss albino mouse assessed as protection against maximal electroshock-induced seizures at 30 mg/kg, ip administered 1 hr prior to 50 mA current induction relative to control; assay type: functional
[6] = tested on: Mus musculus; test: Anticonvulsant activity in Swiss albino mouse assessed as protection against maximal electroshock-induced seizures at 30 mg/kg, ip administered 6 hrs prior to 50 mA current induction relative to control; assay type: functional
[7] = tested on: Mus musculus; test: Neurotoxicity in Swiss albino mouse at 30 mg/kg, ip after 30 to 120 mins by rotarod test; assay type: toxicity, organism-based; conditions: in vivo
[8] = tested on: Rattus norvegicus; test: Sub-acute toxicity in Wistar rat assessed as lymphocytes level at 100 mg/kg, po administered daily for 14 days (reference value: 72.3 +/- 6.7%); assay type: organism-based; conditions: in vivo, 336 h
[9] = tested on: Rattus norvegicus; test: Sub-acute toxicity in Wistar rat assessed as RBC level at 100 mg/kg, po administered daily for 14 days (reference value: 7.9 +/- 0.56 million/mm3); assay type: organism-based; conditions: in vivo, 336 h
[10] = tested on: Rattus norvegicus; test: Sub-acute toxicity in Wistar rat assessed as blood urea level at 100 mg/kg, po administered daily for 14 days (reference value: 40.7 +/- 3.3 mg/dl); assay type: organism-based; conditions: in vivo, 336 h
[11] = tested on: Rattus norvegicus; test: Sub-acute toxicity in Wistar rat assessed as calcium level at 100 mg/kg, po administered daily for 14 days (reference value: 10.5 +/- 1.5 mg/dl); assay type: organism-based; conditions: in vivo, 336 h
[12] = tested on: Rattus norvegicus; test: Sub-acute toxicity in Wistar rat assessed as phosphorus level at 100 mg/kg, po administered daily for 14 days (reference value: 6.71 +/- 1 mg/dl); assay type: organism-based; conditions: in vivo, 336 h
[13] = tested on: Rattus norvegicus; test: Sub-acute toxicity in Wistar rat assessed as Na+ level at 100 mg/kg, po administered daily for 14 days (reference value: 143.8 +/- 2.3 mEq/L); assay type: organism-based; conditions: in vivo, 336 h
[14] = tested on: Rattus norvegicus; test: Sub-acute toxicity in Wistar rat assessed as K+ level at 100 mg/kg, po administered daily for 14 days (reference value: 4.79 +/- 0.45 mEq/L); assay type: organism-based; conditions: in vivo, 336 h
[15] = tested on: Rattus norvegicus; test: Sub-acute toxicity in Wistar rat assessed as hemoglobin level at 100 mg/kg, po administered daily for 14 days (reference value: 13.1 +/- 0.9 g/dl); conditions: in vivo, 336 h
[16] = tested on: Mus musculus; test: Anticonvulsant activity in Swiss albino mouse assessed as protection against maximal electroshock-induced seizures at 100 mg/kg, ip administered 3 hrs prior to 50 mA current induction relative to control

Carbonic anhydrase 1, sequence (P00915 whole entry): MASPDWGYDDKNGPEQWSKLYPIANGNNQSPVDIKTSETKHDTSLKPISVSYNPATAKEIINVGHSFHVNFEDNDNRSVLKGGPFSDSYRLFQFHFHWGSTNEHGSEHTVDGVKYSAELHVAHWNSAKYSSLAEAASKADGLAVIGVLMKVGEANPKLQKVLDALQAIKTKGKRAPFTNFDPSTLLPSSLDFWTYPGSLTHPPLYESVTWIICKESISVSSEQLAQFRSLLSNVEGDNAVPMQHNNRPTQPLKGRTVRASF

With `Cc1ccc(N2CCN(c3ccc(/C=N/NC(=O)c4ccc(S(N)(=O)=O)cc4)cc3)CC2)c(C)c1` the Ki [1] was greater than 10 µM, the Activity [2] was 67 - 84% and the Activity [3] was 50%. It also gave an Activity [4] of 17%, an Activity [5] of 60% and an Activity [6] of 60%. The Activity [7] was “Non-Toxic”, the Activity [8] was 71.5% and the Activity [9] was 7.2 million/mm3. The Activity [10] was 39.6 mg/dL, the Activity [11] was 10 mg/dL and the Activity [12] was 6.48 mg/dL. The Activity [13] was 142.5 mEq/L, the Activity [14] was 4.83 mEq/L and the Activity [15] was 12.2 g/dL. It also gave an Activity [16] of 50%.
